# Columns and labels:
# [1] = Solubility of heme in solution; type: physicochemical; conditions: concentrations above this are insoluble
# [2] = system: HssRS-dependent hrtAB expression; assay: Luminescence-based assay to monitor HssRS-dependent hrtAB expression (phrtABlux reporter), Newman; type: cell-based, Staphylococcus aureus
# How it was run: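 S. aureus Newman wild type or ΔhssR carrying a hrtAB promoter–luxCDABE reporter (phrtABlux), grown in TSB with 10 μg/ml chloramphenicol at 37 °C. Light output read against 82.5 nM heme as the in-plate positive control. Activity given as % of heme-induced luminescence.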
compound,measurement,setting,value
"C=CC1=C(C)c2cc3[n-]c(cc4[n-]c(cc5nc(cc1n2)C(C)=C5C=C)c(C)c4CCC(=O)O)c(CCC(=O)O)c3C.[Fe+2] [heme, reference compound]",soluble concentration in solution,[1],≤ 30 µM
same,light production on solid medium,"[2]; S. aureus containing phrtABlux, solid medium without or with 4 μM heme",generated light exclusively upon heme exposure
same,luminescence in liquid media,"[2]; S. aureus wildtype containing phrtABlux, liquid media with or without heme",robust luminescence
same,increase in luminescence,"[2]; exposure of S. aureus to 3 μM heme, preliminary results",100 fold
same,increase in luminescence over negative control strains,"[2]; heme-exposed wildtype harboring phrtABlux vs wildtype plux and ΔhssR phrtABlux, preliminary results",100 fold

# Source: US8263642B2, “Antimicrobial compounds and methods of use thereof” (Vanderbilt University, priority 2008, dated 2012)
